In patent US20060127980A1, “Human excitatory amino acid transporter-2 gene promoter and uses thereof” (priority 2003, published 2006):

Key:
hEAAT2 protein = test: Western blot of EAAT2 protein in PHFA; format: cell-based, human
Protocol: FIG. 5A-E. Effect of pharmacological inhibitors on hEAAT2 promoter activity, and mRNA and protein expression in PHFA following various treatment protocols. A. hEAAT2 promoter activity in PHFA, either untreated (−) or treated with EGF (30 ng/ml), in the absence (−) or presence (+) of KT5720 (5 μM), AG1478 (1 μM), PDTC (100 μM), wortmannin (WRT) (100 nM) or PD98049 (PD) (50 μM). B. hEAAT2 promoter activity in PHFA, either untreated (−) or treated with bromo-cAMP (250 μM) in the absence (−) or presence (+) of KT5720 (5 μM), AG1478 (1 μM), PDTC (100 μM), wortmannin (WRT) (100 nM) or PD98049 (PD) (50 μM). C. hEAAT2 promoter activity in PHFA, either untreated (−) or treated with TNF-α (200 U/ml), in the absence (−) or presence (+) of KT5720 (5 μM), AG1478 (1 μM), PDTC (100 μM), wortmannin (WRT) (100 nM) or PD98049 (PD) (50 μM). D. The effect of the various treatment protocols on hEAAT2 and GAPDH mRNA levels. Upper panel presents relative hEAAT2 RNA expression versus GAPDH expression relative to control untreated or treated samples based on scanning of autoradiograms. Lower panel, actual Northern blots. E. The effect of the various treatment protocols on EAAT2 and ACTIN protein levels. Upper panel presents relative EAAT2 protein expression versus ACTIN expression relative to control untreated or treated samples based on scanning of autoradiograms. Individual experiments were performed 3 times using triplicate samples and S.D. from the mean is presented.
Northern and Western Blotting Assays. Total cellular RNA was isolated by the guanidinium/phenol extraction method and Northern blotting was performed as described (Huang et al., 2001, Oncogene 20(48):7051-7063; Su et al., 2000, Oncogene 19(30):3411-3421; Su et al., 2001, Nucleic Acids Res 29(8):1661-1671). Western blotting assays were performed as described (Su et al., 1998, Proc Natl Acad Sci USA 95(24):14400-14405; Su et al., 2002, Oncogene 21(22):3592-602).

hEAAT2 promoter = hEAAT2 promoter luciferase assay of agents in PHFA (FIG. 10); format: cell-based, human; conditions: PHFA passage #3; 10 μM
Protocol: (§1) FIG. 10. Effect of various agents on hEAAT2 promoter activity on primary human fetal astrocytes (PHFA). A: ceftriaxone; B: amoxicillin; C: chloramphenicol; D: thiamphenicol; E: vancomycin; F: glycine; G: glutamate; H: DMSO; I: dibutyryl cAMP. PHFA (passage #3) were seeded at 1×10^5 cells/35-mm plate. Twenty-four h later cells were untreated (CON) or received the indicated compound at a final concentration of 10 μM. Forty-eight h later the cells were transfected with a FL pGL3/EAAT2 luciferase reporter construct (5 μg) plus a pSVβGalactosidase construct (1 μg) using the calcium phosphate precipitation method (Su et al. 2003, Proc. Natl. Acad. Sci. USA 100:1955-1960). After an additional 48 h, cell lysates were prepared and luciferase activity was determined using the Luciferase Assay System Kit (Promega, E1501) and luminescence determined using a luminometer (Turner Designs, TD20/20) (Su et al. 2003, Proc. Natl. Acad. Sci. USA 100:1955-1960). Data presented are the average of 3 independent plates±S.D. Qualitatively similar results were obtained in 2 additional experiments.
as §1, with “Identification of Agents that Modulate hEAAT2 Promoter Activity. FIGS. 10-12 show the effects” for “FIG. 10. Effect”, “in PHFA (FIG. 10), PHFA-Im (FIG. 11) and H4 glioma (FIG. 12) cells. In the studies shown in FIG. 10,” for “on primary human fetal astrocytes (PHFA). A: ceftriaxone; B: amoxicillin; C: chloramphenicol; D: thiamphenicol; E: vancomycin; F: glycine; G: glutamate; H: DMSO; I: dibutyryl cAMP.”

CCCC(=O)Nc1ncnc2c1ncn2[C@@H]1O[C@@H]2COP(=O)(O)O[C@H]2[C@H]1OC(=O)CCC [dbcAMP, dibutyryl cyclic AMP]
hEAAT2 protein levels (hEAAT2 protein): upregulated | hEAAT2 promoter activity (hEAAT2 promoter): potent stimulators
